For two compounds, Stability, Activity and Drug uptake results are on record in ChEMBL document CHEMBL3217637, “Temocene: the porphycene analogue of temoporfin (Foscan)” (Medchemcomm, 2011).

Series [1] is described as follows: Photostability of the compound in aerated acetone under irradiation at 532 nm laser pulses. Type of series: physicochemical. More on the design: dose or concentration left out as unconfirmed.
Series [2] has as its system HeLa. Put plainly: Cytotoxicity against human HeLa cells assessed as decrease in cell viability under dark condition after 18 hrs by MTT assay. Type of series: cell-based. Background: Tetrazolium assays rely on reduction of a dye to a coloured formazan, in cell work by metabolically active cells.
Series [3] has as its system HeLa. In words: Cellular uptake in human HeLa cells under ultraviolet irradiation at 365 nm at 0.5 uM after 18 hrs by mitotracker green staining-based fluorescence microscopic analysis. Type of series: ADME, cell-based.
The nature of series [4]: Cellular uptake in cytoplasm of human HeLa cells under ultraviolet irradiation at 365 nm at 1 to 10 uM after 18 hrs by mitotracker green staining-based fluorescence microscopic analysis. It is filed as ADME, cell-based.
In series [5] the test system is HeLa. Put plainly: Phototoxicity against human HeLa cells assessed as decrease in cell viability at > 5 uM preincubated for 18 hrs followed by 3.5 J/cm'2 of photoirradiation measured after 24 hrs by MTT assay. It is filed as functional, cell-based.
A short description of series [6]: Cellular uptake in mitochondria of human HeLa cells under prolonged irradiation at 365 nm up to 10 uM after 18 hrs by mitotracker green staining-based fluorescence microscopic analysis. It is filed as ADME.
In series [7] the test system is HeLa. In words: Phototoxicity against human HeLa cells assessed as decrease in cell viability at < 5 uM preincubated for 18 hrs followed by > 3.5 J/cm'2 of photoirradiation measured after 24 hrs by MTT assay. It is filed as functional, cell-based.
Series [8] can be described thus: Cellular uptake in mitochondria of human HeLa cells under ultraviolet irradiation at 365 nm at 1 to 10 uM after 18 hrs by mitotracker green staining-based fluorescence microscopic analysis. It is filed as ADME.
The nature of series [9]: Cellular uptake in cytoplasm of human HeLa cells under prolonged irradiation at 365 nm up to 10 uM after 18 hrs by mitotracker green staining-based fluorescence microscopic analysis. It is filed as ADME, cell-based.

Molecules are shown by their SMILES. Active and inactive are the calls of the source. No cut-off for these calls is given here.

As for `Oc1cccc(-c2c3nc(c(-c4cccc(O)c4)c4ccc([nH]4)c(-c4cccc(O)c4)c4nc(c(-c5cccc(O)c5)c5ccc2[nH]5)CC4)C=C3)c1` [TEMOPORFIN], the Stability entry in series [1] is reported as “Stable”. For the same compound, the Activity result in the series on HeLa [2] is listed as “Toxic”.

With `Oc1cccc(C2=Cc3nc2ccc2[nH]c(cc2-c2cccc(O)c2)c2nc(ccc4[nH]c3cc4-c3cccc(O)c3)C(c3cccc(O)c3)=C2)c1`, the Drug uptake entry with HeLa [3] was “Not Active”; in [4], “Active”; in series [6] it was “Active”; in [8], “Active”; in [9] it was “Active”. For the same compound, the outcome in the series with HeLa [5] and with HeLa [7] was Active. In addition, the Stability entry in series [1] is “Stable”. In the series with HeLa [2], the Activity entry was “Non-toxic”.
